Results: publication PMC10141139 (2023)

Columns and labels:
[1] = system: Negative control (RNA, single strand) UUACCCUUACCCUUACCCUUACCCUUA; assay: ThT fluorescence light-up; settings: pH 7.4, 34 °C, 5 µM RNA, 5 µM ThT highest tested
[2] = system: miniTERRA (RNA, G4) UUAGGGUUAGGGUUAGGGUUAGGGUUA; assay: ThT fluorescence light-up; settings: pH 7.4, 34 °C, 5 µM RNA, 5 µM ThT
[3] = system: miniTERRA (RNA, G4) UUAGGGUUAGGGUUAGGGUUAGGGUUA; assay: fluorescent indicator displacement (ThT); settings: pH 7.4, 34 °C, 5 µM RNA, 5 µM ThT displaced

Row | SMILES | binding ([1]; K+ (100 mM phosphate)) | binding ([1]; Na+ (100 mM phosphate)) | binding ([2]; K+ (100 mM phosphate)) | binding ([2]; Na+ (100 mM phosphate)) | IC50 ([3]; K+ (100 mM phosphate)) | IC50 ([3]; Na+ (100 mM phosphate))
1 | Cc1ccc2c(c1)sc(-c1ccc(N(C)C)cc1)[n+]2C | no | no | yes | yes |  | 
2 | NCCOc1cc(C(=O)Nc2cc(OCCN)c3ccccc3n2)nc(C(=O)Nc2cc(OCCN)c3ccccc3n2)c1 |  |  |  |  | 17.23 ± 0.28 µM | 19.29 ± 0.25 µM
